These results are taken from PubChem BioAssay AID1626 (SRMLSC, 2009).

The subject of this assay is M. tuberculosis H37Rv growth inhibition. The experiment in a line: M. tuberculosis H37Rv growth inhibitors, H37Rv strain (AID 1626). To be noted: for IC90: measured here: IC90 against H37Rv; for CC50: measured here: Vero cell cytotoxicity.

For orientation: IC50 means the point on the concentration scale where inhibition reaches its midpoint. In general, IC90 refers to the concentration needed for an effect of 90%. Higher therefore signals a need for much substance. As usually defined, the CC50 is the concentration at which the toxic effect on the cells reaches its halfway point. Lower therefore signals greater toxicity to the cells.

Turning to `Cc1ccc(OC(=O)c2sc3ncn(C)c(=O)c3c2C)cc1`, the IC50 was 1.49 µM and the IC90 came out at 1.7 µM.
In the case of `CN(C)c1ccc(/C=C/C=C2/C(=O)NC(=O)N(c3ccccc3)C2=O)cc1`, the IC50 was 2.5 µM, the concentration for an effect of 90% (IC90) turned out to be 4.66 µM and the CC50 is greater than 40 µM.
The compound `Nc1cc(=O)[nH]c(SCC(=O)Nc2ccccc2-c2ccccc2)n1` returned an IC90 greater than 100 µM and a CC50 greater than 40 µM.
Consider `CCc1c(O)nc(SCC(=O)Nc2ccc3c(c2)CCC3)[nH]c1=O`, for which the IC50 was 57.4 µM and the IC90 is greater than 100 µM.
Taken in the same sequence, the figures for `Cc1ccc2c(c1)c1ncnc(N3CCc4ccccc4C3)c1n2C` were 6.39 µM and 11.2 µM.
On to `COc1cc(/C=C/C(=O)c2c(O)n(CCc3ccccc3)c(=O)[nH]c2=O)ccc1O`, for which the IC50 was 7.57 µM, the IC90 came to 11.3 µM and the CC50 came to 20.2 µM.
Regarding `c1ccc(C2[C@H]3CN(CC4CCCCC4)[C@H](c4ccccc4)C34CC2(c2cccnc2)C4)cc1` (stereo partly drawn), the IC50 was 15 µM and the IC90 is 23.4 µM.
With `COc1cccc(C(=O)/C=C/c2ccc(OCC#N)c(OC)c2)c1`, the IC50 is 19.8 µM, the IC90 was greater than 100 µM and the CC50 stood at 12.4 µM.
On to `COc1ccc(N2C(=O)NC(=O)/C(=C/c3cccc(OC(=O)c4cccs4)c3)C2=O)cc1Cl`, for which the IC50 is 5.35 µM and the IC90 is 17.5 µM.
Consider `COCc1ccc(O)c2ncccc12`, for which the IC50 was 10.9 µM, the IC90 was found to be 12 µM and the CC50 was found to be 9.76 µM.
Taken in the same sequence, the figures for `CCc1ccc(/C=c2\s/c(=C\C(=O)C(C)(C)C)[nH]c2=O)cc1` were 2.55 µM, 3.56 µM and greater than 40 µM.
For the compound `O=c1cc(N=Nc2ccc(Cl)cc2)[nH]c(=O)[nH]1`, the IC50 was 13 µM, the IC90 was 14.5 µM and the CC50 worked out at 7.51 µM.
Take `O=[N+]([O-])c1ccc(-c2ccc(/C=N/O)o2)cc1`: the concentration for an effect of 90% (IC90) is greater than 100 µM.
Regarding `Cc1nc(NC(=O)c2ccccc2)sc1Cc1ccc2c(c1)OCO2`, the IC50 is 60.5 µM, the IC90 is greater than 100 µM and the CC50 is greater than 40 µM.
In turn, `Cc1ccc(-n2c(C)nc3c(cnn3-c3ccc(C)c(C)c3)c2=O)cc1C` returned a CC50 greater than 40 µM.
`COc1ccc(-c2cc(C(=O)Nc3nc4ccccc4s3)c3ccccc3n2)cc1OC`: the IC50 is 4.02 µM and the IC90 was greater than 100 µM.
For the compound `O=C(c1cc2cc3ccc(Cl)cc3nc2o1)N1CCC2(CC1)OCCO2`, the IC50 is 3.56 µM and the IC90 is 7.22 µM.
In the case of `CCCCn1c(O)c(C(=O)/C=C/c2ccc3c(c2)OCO3)c(=O)[nH]c1=O`, the IC50 is 4.53 µM, the IC90 is 7.66 µM and the half-maximal cytotoxic concentration (CC50) was greater than 40 µM.
Taken in the same sequence, the figures for `CCOc1ccc2nc(NC(=O)c3cnc(C)cn3)sc2c1` were 4.76 µM, greater than 100 µM and 40 µM.
Take `O=C(CCSc1ccccc1)Nc1nnc(-c2ccccc2)o1`: the IC90 was greater than 100 µM.
With `CCc1nc(NCc2ccc3c(c2)OCO3)c2oc3ccccc3c2n1`, the IC50 is 8.85 µM, the IC90 stood at 17 µM and the cytotoxic concentration (CC50) is greater than 40 µM.
As for `COc1ccc2nc(NC(=O)c3cnccn3)sc2c1`, the CC50 is greater than 40 µM.
As for `CC(=O)c1ccccc1OCC(O)CN1CCN(C(c2ccccc2)c2ccccc2)CC1` (stereo not drawn), the IC50 is 7.75 µM, the IC90 was 32.6 µM and the CC50 turned out to be 33.1 µM.
On to `COC(=O)c1c(C)oc2ccc(OC(=O)c3cccs3)cc12`, for which the IC50 was 1.1 µM and the IC90 was found to be 17.8 µM.
`Cc1cccc(-n2c(/C=C/c3ccc([N+](=O)[O-])o3)nc3ccccc3c2=O)c1` had an IC90 greater than 100 µM and a CC50 of 28.7 µM.
In the case of `COc1ccc(NCC(=O)Nc2ccccc2C#N)cc1Cl`, the half-maximal inhibitory concentration (IC50) was 97.8 µM and the IC90 is greater than 100 µM.
As for `COc1ccc(C[C@H]2CN3C(=NC[C@H]3Cc3ccccc3)N2CCNC(=O)CCC2CCCCC2)cc1`, the IC50 was 10.9 µM, the 90% effect concentration (IC90) came out at 12.3 µM and the CC50 came to 29 µM.
Regarding `O=C1N(c2ccc3c(c2)OCCO3)C(c2ccccc2)C1(F)F` (stereo not drawn), the IC50 is 2.57 µM and the IC90 came out at 7.34 µM.
`Cn1c(-c2c(N)n(-c3ccccc3)c3nc4ccccc4nc23)nc2ccccc21`: the IC50 is 0.331 µM, the IC90 is greater than 100 µM and the CC50 was greater than 40 µM.
Regarding `CCOCC(=O)Nc1ccc(OCc2ccccc2)cc1`, the half-inhibitory concentration (IC50) is 29.5 µM and the IC90 is greater than 100 µM.
As for `COc1ccc(-c2nc(NC(=O)c3cc(C(C)(C)C)nn3C)sc2C)cc1`, the half-inhibitory concentration (IC50) was 4.42 µM, the IC90 was determined as 8.83 µM and the CC50 was greater than 40 µM.
Taken in the same sequence, the figures for `O=C(Nc1ncc(Cc2ccccc2Cl)s1)C1=NCCN1` were 3.75 µM, 10.3 µM and greater than 40 µM.
Consider `CCOC(=O)c1ccc(NC(=O)C2CC2)cc1`, for which the IC50 is 28.5 µM and the IC90 is greater than 100 µM.
In the case of `O=[N+]([O-])c1ccc(Sc2nc3ccccc3o2)c([N+](=O)[O-])c1`, the IC50 is 3.69 µM, the IC90 turned out to be 5.16 µM and the cytotoxic concentration (CC50) was 8.69 µM.
Taken in the same sequence, the figures for `CCCCCCCCn1c2c(c(=N)c3ccccc31)CCC2` were 6.24 µM, 9.17 µM and 9.55 µM.
Regarding `Cc1ccc(-c2nnc(N3CCN(C(=O)c4ccco4)CC3)c3ccccc23)cc1`, the IC50 is 7.44 µM and the IC90 came out at 13.8 µM.
As to `OC(c1cc(-c2ccc(Cl)cc2)nc2ccccc12)C1CCCCN1` (stereo not drawn), the IC50 was 4.52 µM, the 90% effect concentration (IC90) amounted to 13.5 µM and the CC50 is 7.35 µM.
For the compound `COc1ccccc1-c1nnc(NC(=O)c2ccc3ncsc3c2)o1`, the IC50 is 4.17 µM, the IC90 was greater than 100 µM and the CC50 was determined as 24.3 µM.
As to `Cc1ccc(C(=O)NCCSC(C)(C)C)cc1[N+](=O)[O-]`, the IC50 is 2.96 µM and the IC90 turned out to be 3.32 µM.
Taken in the same sequence, the figures for `COc1ccc(S(=O)(=O)Oc2ccc3c(c2)O/C(=C\c2cccnc2)C3=O)cc1` were 2.34 µM and 19.4 µM.
`CCOC(=O)c1ccc(NC(=O)c2nc[nH]c2C(=O)N[C@H](C)c2ccccc2)cc1`: the IC50 is 6.38 µM, the IC90 amounted to 24.6 µM and the CC50 is 26 µM.
On to `COC(=O)CSc1nnc(-c2ccc(OC)cc2OC)o1`, for which the IC50 is 1.76 µM and the IC90 came out at 4.54 µM.
In the case of `CC(C)[C@H](NC(=O)c1ccccc1Cl)C(=O)Nc1nc(-c2ccccn2)cs1`, the IC50 was 7.72 µM, the IC90 is greater than 100 µM and the CC50 was found to be 9.39 µM.
Regarding `Cc1ccccc1OCc1nc(-c2ccc(NC(=O)c3cccs3)cc2)no1`, the half-inhibitory concentration (IC50) was 4.48 µM and the IC90 was 46.6 µM.
In the case of `O=C(c1cc2nc(-c3ccc(F)cc3)cc(C(F)(F)F)n2n1)N1CCCCC1c1cccnc1` (stereo not drawn), the IC50 was 9.18 µM, the IC90 was 14 µM and the CC50 is greater than 40 µM.
Consider `CCOc1ccc(N=Cc2c(O)n(-c3cc(C)cc(C)c3)c(=O)[nH]c2=O)cc1`, for which the IC50 was less than 0.195 µM and the IC90 was greater than 100 µM.
Take `COc1ccccc1/C=C/C(=O)Oc1cccc2cccnc12`: the IC50 is 2.8 µM, the IC90 worked out at 3.05 µM and the half-maximal cytotoxic concentration (CC50) was 37.9 µM.
Taken in the same sequence, the figures for `Cc1ccc(C(=O)CC(=O)COc2ccc(Cl)cc2)cc1` were 6.66 µM, greater than 100 µM and greater than 40 µM.
For the compound `CCOc1ccc2nc(NC(=O)CSc3nnnn3C3CCCCC3)sc2c1`, the half-inhibitory concentration (IC50) was 56.4 µM and the IC90 is greater than 100 µM.
Taken in the same sequence, the figures for `COc1ccc(C(C(=O)NC2CCCCC2)N(C(=O)c2sc(C)nc2C)c2ccc(C(C)=O)cc2)cc1` (stereo not drawn) were 65.5 µM and greater than 100 µM.
Taken in the same sequence, the figures for `O=C1C2C3C=CC(C3)C2C(=O)N1c1ccc(-c2nc3ccccc3c(=O)o2)cc1` (stereo not drawn) were 9.33 µM and 23.1 µM.
For `O=C1C(=O)c2ccc(-c3ccccc3)cc2-c2ccccc21`, the IC50 was 1.47 µM, the IC90 was determined as 1.66 µM and the CC50 was 3.09 µM.
For the compound `CC(=O)Nc1nc2ccccc2n1Cc1ccccc1`, the IC50 is 2.74 µM, the IC90 came to 3.59 µM and the CC50 was greater than 40 µM.
For the compound `Cc1cccc(C=Nc2ccc3c(c2)oc2ccccc23)c1O`, the IC50 was 1.11 µM and the IC90 is greater than 100 µM.
For `O=C(Nc1nnc(-c2ccco2)o1)c1cccc2ccccc12`, the IC50 is 2.34 µM, the IC90 came out at 6.25 µM and the CC50 worked out at 39.4 µM.
Consider `COc1ccc(CNC(=O)c2sc3nc4c(c(C(F)(F)F)c3c2N)CCC4)cc1OC`, for which the IC50 was 12 µM and the IC90 was found to be 18.3 µM.
Taken in the same sequence, the figures for `[O-][n+]1onc2c3cc(-c4ccccc4)nnc3ccc21` were less than 0.195 µM and 0.443 µM.
Taken in the same sequence, the figures for `COc1ccc(NC(=O)CSCc2ccc(C)cc2)cc1` were 26.5 µM and greater than 100 µM.
On to `O=C(Nc1nnc(-c2ccccn2)o1)c1cccc(Br)c1`, for which the IC50 was 12.4 µM, the IC90 is greater than 100 µM and the CC50 was greater than 40 µM.
In the case of `O=C(CCl)Oc1ccc2occ(C(=O)c3cccs3)c2c1`, the IC90 was greater than 100 µM.
For the compound `CCS(=O)(=O)Nc1ccc(-c2cc(-c3ccccc3)c3cc(C)ccc3n2)cc1`, the IC50 is 9.19 µM, the IC90 came to 13.5 µM and the CC50 is 34.7 µM.
`O=C(CSc1nc(-c2ccccc2Cl)ns1)Nc1ccc2c(c1)OCO2`: the half-maximal cytotoxic concentration (CC50) is greater than 40 µM.
`Cc1c(-c2cccc(Cl)c2)nc2ccccc2c1C(=O)OCC(=O)Nc1ccc2c(c1)OCO2`: the concentration for half-maximal inhibition (IC50) was 10.9 µM, the IC90 is greater than 100 µM and the CC50 worked out at 38.8 µM.
Taken in the same sequence, the figures for `Cc1ccc(CNCC(O)(c2ccccc2)c2ccc(Cl)cc2)cc1` (stereo not drawn) were 8.17 µM, 10.9 µM and greater than 40 µM.
Taken in the same sequence, the figures for `Cc1c2ccncc2c(C)c2c1[nH]c1ccccc12` were 0.465 µM, 0.667 µM and 0.793 µM.
`Clc1ccc(-[n+]2c(-c3cccc(Br)c3)[nH]c3nc4ccccc4nc32)cc1` displayed a 90% effect concentration (IC90) greater than 100 µM and a CC50 greater than 40 µM.
